Laboratory results taken from the NIST ThermoML archive (doi:10.1021/je9010129).

Test: refractive index (Na D-line) (dimensionless); mn = molality of the nth substance listed, in mol/kg
Conditions: 101 kPa, Liquid, Standard Abbe refractometry

N.N.O=S(=O)(O)O [ammonium sulfate] + O
refractive index
Conditions	288.15 K	298.15 K	308.15 K	318.15 K
m1 = 0.2725	1.33934	1.33813	1.33696	1.33544
m1 = 0.3995	1.34174	1.3408	1.33941	1.33806
m1 = 0.4876	1.34348	1.34227	1.34098	1.33956
m1 = 0.8025	1.34905	1.34798	1.3467	1.34521
m1 = 1.198	1.35554	1.35434	1.353	1.35156
m1 = 1.604	1.3614	1.36025	1.35888	1.3574
m1 = 1.992	1.36659	1.36535	1.36402	1.36252
m1 = 2.381	1.37134	1.37008	1.36878	1.36733
m1 = 2.801	1.37588	1.37472	1.37338	1.37211
m1 = 3.2	1.38006	1.37873	1.37738	1.37611
m1 = 3.619	1.38383	1.38259	1.38126	1.38009
m1 = 3.997	1.38708	1.38596	1.38446	1.38325
m1 = 4.396	1.39018	1.38897	1.3876	1.38647
m1 = 4.763	1.39286	1.3917	1.39031	1.38922
m1 = 5.181	1.3957	1.39451	1.3932	1.39197
m1 = 5.6	1.39836	1.39715	1.39584	1.39461
m1 = 5.876	–	–	1.3975	1.39618
m1 = 6.328	–	–	–	1.3983

O=S(=O)([O-])[O-].[K+].[K+] [potassium sulfate] + O
refractive index
Conditions	288.15 K	298.15 K	308.15 K	318.15 K
m1 = 0.0456	1.33447	1.33359	1.33228	1.33072
m1 = 0.1387	1.33636	1.33552	1.33411	1.33251
m1 = 0.2502	1.33866	1.33771	1.33625	1.33466
m1 = 0.3409	1.34035	1.33945	1.33786	1.33626
m1 = 0.4174	1.34183	1.34071	1.33927	1.33763
m1 = 0.503	1.3433	1.34227	1.34077	1.33906
m1 = 0.5093	1.34341	1.3423	1.34084	1.3392
m1 = 0.5703	1.34451	1.34337	1.34186	1.34022
m1 = 0.6509	–	1.34476	1.34324	1.34151
m1 = 0.7435	–	–	1.34478	1.34301
m1 = 0.8106	–	–	–	1.34404
m1 = 0.8605	–	–	–	1.34488
m1 = 0.9049	–	–	–	1.34557

O=S(=O)([O-])[O-].[Na+].[Na+] [sodium sulfate] + O
refractive index
Conditions	288.15 K	298.15 K	308.15 K	318.15 K
m1 = 0.1002	1.33566	1.33473	1.33342	1.33185
m1 = 0.1938	1.33757	1.33653	1.33518	1.33378
m1 = 0.477	1.34311	1.34187	1.34052	1.33896
m1 = 0.7055	1.34719	1.34585	1.34434	1.34278
m1 = 0.8578	1.34983	1.34855	1.34695	1.34531
m1 = 0.9866	–	1.35058	1.34904	1.34742
m1 = 1.206	–	1.35377	1.3522	1.35057
m1 = 1.59	–	1.35915	1.35746	1.35598
m1 = 1.727	–	1.36096	1.35931	1.35778
m1 = 1.992	–	–	1.36271	1.36102
m1 = 2.237	–	–	1.36573	1.36396
m1 = 2.532	–	–	1.36884	1.36711
m1 = 2.681	–	–	1.37046	1.36857
m1 = 2.805	–	–	1.37172	1.36992
m1 = 3.053	–	–	1.37411	1.37246
m1 = 3.219	–	–	1.37569	1.37386
m1 = 3.305	–	–	1.37649	1.3747
m1 = 3.423	–	–	1.37756	–

O [water] + N.N.O=S(=O)(O)O
m2 = 0
Conditions	refractive index
288.15 K	1.33339
298.15 K	1.33248
308.15 K	1.33128
318.15 K	1.32979

O [water] + O=S(=O)([O-])[O-].[K+].[K+]
m2 = 0
Conditions	refractive index
288.15 K	1.33339
298.15 K	1.33248
308.15 K	1.33128
318.15 K	1.32979

O [water] + O=S(=O)([O-])[O-].[Na+].[Na+]
m2 = 0
Conditions	refractive index
288.15 K	1.33339
298.15 K	1.33248
308.15 K	1.33128
318.15 K	1.32979
